# System: stable CF patients
# Assay: Phase 1b study: pulmonary function tests (FEV1)
# Assay type: in vivo, human
# Procedure: All patients had had P. aeruginosa cultured from sputum within the previous 24 months and at the screening visit. Study drug was administered twice daily for up to 14 days at three doses by aerosol using a PART eFlow device. Respirable delivered doses (RDD) were approximately 40 mg, 80 mg, and 120 mg per treatment, corresponding to loaded doses of 78 mg, 175 mg, and 260 mg, respectively. Thus, the estimated total daily RDDs were 80 mg, 160 mg, and 240 mg. Study drugs were administered at 30 mg/ml (for 40 mg dose) or 50 mg/ml (for 80 mg and 120 mg doses).
# In Table 3, relative change from baseline (CBG) was calculated as ‘Result’ FEV1 minus ‘Baseline’ FEV1 divided by ‘Baseline’ FEV1.
# [1] = 80 mg RDD BID, Day 1 predose baseline
# [2] = 120 mg RDD BID, Day 1 predose baseline
compound,measurement,setting,value
"C[C@H]1COc2c(N3CCN(C)CC3)c(F)cc3c(=O)c(C(=O)O)cn1c23 [Levofloxacin, levofloxacin]","FEV1, median","40 mg RDD BID, Day 1 predose baseline",2.30 L
same,"FEV1, median","40 mg RDD BID, Day 2 predose",2.32 L
same,"FEV1, median","40 mg RDD BID, Day 7",2.30 L
same,"FEV1, median","40 mg RDD BID, Day 14 predose",2.30 L
same,"FEV1, median","40 mg RDD BID, Day 21/ET",2.07 L
same,"FEV1, mean",[1],2.06 L
same,"FEV1, median",[1],1.95 L
same,"FEV1, median","80 mg RDD BID, Day 2 predose",2.00 L
same,"FEV1, median","80 mg RDD BID, Day 7",2.08 L
same,"FEV1, median","80 mg RDD BID, Day 14 predose",2.10 L
same,"FEV1, mean","80 mg RDD BID, Day 21/ET",2.03 L
same,"FEV1, median","80 mg RDD BID, Day 21/ET",2.04 L
same,"FEV1, mean",[2],2.56 L
same,"FEV1, median",[2],2.23 L
same,"FEV1, mean","120 mg RDD BID, Day 2 predose",2.73 L
same,"FEV1, median","120 mg RDD BID, Day 2 predose",2.38 L
same,"FEV1, mean","120 mg RDD BID, Day 7",3.07 L
same,"FEV1, median","120 mg RDD BID, Day 7",2.40 L
same,"FEV1, mean","120 mg RDD BID, Day 14 predose",3.12 L
same,"FEV1, median","120 mg RDD BID, Day 14 predose",2.57 L
same,"FEV1, mean","120 mg RDD BID, Day 21/ET",2.75 L
same,"FEV1, median","120 mg RDD BID, Day 21/ET",2.48 L

# Reference: patent US10792289B2 (Horizon Orphan LLC, priority 2009, dated 2020)
